Measurements reported in ChEMBL document CHEMBL3745645, “Synthesis, in vitro antitumor activity, dihydrofolate reductase inhibition, DNA intercalation and structure-activity relationship studies of 1,3,5-triazine analogues” (Bioorg Med Chem Lett, 2016).
The source made the active and inactive calls. The rule behind the calls is not given here.

Assays:
Assay type in all cases: functional
[1] = Cytotoxicity against human COLO205 cells at 10 uM after 48 hrs by SRB assay; conditions: COLO 205, 48 h, read-out: GI
[2] = Cytotoxicity against human OVCAR4 cells at 10 uM after 48 hrs by SRB assay; conditions: OVCAR-4, 48 h, read-out: GI
[3] = Cytotoxicity against human HCT116 cells at 10 uM after 48 hrs by SRB assay; conditions: HCT-116, 48 h, read-out: GI
SK-MEL-2 = test: Cytotoxicity against human SK-MEL-2 cells at 10 uM after 48 hrs by SRB assay
HCT-15 = test: Cytotoxicity against human HCT15 cells at 10 uM after 48 hrs by SRB assay
[4] = Cytotoxicity against human SF268 cells at 10 uM after 48 hrs by SRB assay; conditions: SF-268, 48 h, read-out: GI
BT-549 = test: Cytotoxicity against human BT549 cells at 10 uM after 48 hrs by SRB assay
[5] = Cytotoxicity against human SF295 cells at 10 uM after 48 hrs by SRB assay; conditions: SF-295, 48 h, read-out: GI
MCF7 = test: Cytotoxicity against human MCF7 cells at 10 uM after 48 hrs by SRB assay; conditions: MCF7, 48 h, read-out: GI
ACHN = test: Cytotoxicity against human ACHN cells at 10 uM after 48 hrs by SRB assay; conditions: read-out: GI
TK-10 = test: Cytotoxicity against human TK10 cells at 10 uM after 48 hrs by SRB assay
[6] = Cytotoxicity against human DU145 cells at 10 uM after 48 hrs by SRB assay; conditions: DU-145, 48 h, read-out: GI
[7] = Cytotoxicity against human UO31 cells at 10 uM after 48 hrs by SRB assay; conditions: UO-31, 48 h, read-out: GI
SW-620 = test: Cytotoxicity against human SW620 cells at 10 uM after 48 hrs by SRB assay
SK-MEL-28 = test: Cytotoxicity against human SK-MEL-28 cells at 10 uM after 48 hrs by SRB assay
Malme-3M = test: Cytotoxicity against human MALME-3M cells at 10 uM after 48 hrs by SRB assay
[8] = Cytotoxicity against human IGROV1 cells at 10 uM after 48 hrs by SRB assay; conditions: IGROV-1, 48 h, read-out: GI
[9] = Cytotoxicity against human OVCAR8 cells at 10 uM after 48 hrs by SRB assay; conditions: OVCAR-8, 48 h, read-out: GI
[10] = Cytotoxicity against human SF539 cells at 10 uM after 48 hrs by SRB assay; conditions: SF-539, 48 h, read-out: GI
KM12 = test: Cytotoxicity against human KM12 cells at 10 uM after 48 hrs by SRB assay; conditions: KM12, 48 h, read-out: GI
U-251 = test: Cytotoxicity against human U251 cells at 10 uM after 48 hrs by SRB assay; conditions: U-251, 48 h, read-out: GI
MDA-MB-435 = test: Cytotoxicity against human MDA-MB-435 cells at 10 uM after 48 hrs by SRB assay; conditions: MDA-MB-435, 48 h, read-out: GI
[11] = Cytotoxicity against human UACC257 cells at 10 uM after 48 hrs by SRB assay; conditions: UACC-257, 48 h, read-out: GI
SK-MEL-5 = test: Cytotoxicity against human SK-MEL-5 cells at 10 uM after 48 hrs by SRB assay; conditions: SK-MEL-5, 48 h, read-out: GI
SN12C = test: Cytotoxicity against human SN12C cells at 10 uM after 48 hrs by SRB assay; conditions: read-out: GI
OVCAR-5 = test: Cytotoxicity against human OVCAR5 cells at 10 uM after 48 hrs by SRB assay
NCI-H460 = test: Cytotoxicity against human NCI-H460 cells at 10 uM after 48 hrs by SRB assay; conditions: NCI-H460, 48 h, read-out: GI
Hs-578T = test: Cytotoxicity against human Hs 578T cells at 10 uM after 48 hrs by SRB assay
K562 = test: Cytotoxicity against human K562 cells at 10 uM after 48 hrs by SRB assay; conditions: K562, 48 h, read-out: GI
[12] = Cytotoxicity against human LOXIMVI cells at 10 uM after 48 hrs by SRB assay; conditions: LOX IMVI, read-out: GI
786-0 = test: Cytotoxicity against human 786-0 cells at 10 uM after 48 hrs by SRB assay; conditions: 786-0, 48 h, read-out: GI
[13] = Cytotoxicity against human RPMI8226 cells at 10 uM after 48 hrs by SRB assay; conditions: RPMI-8226, 48 h, read-out: GI
NCI-H522 = test: Cytotoxicity against human NCI-H522 cells at 10 uM after 48 hrs by SRB assay; conditions: NCI-H522, 48 h, read-out: GI
SK-OV-3 = test: Cytotoxicity against human SKOV3 cells at 10 uM after 48 hrs by SRB assay
SR = test: Cytotoxicity against human SR cells at 10 uM after 48 hrs by SRB assay; conditions: read-out: GI
NCI-H226 = test: Cytotoxicity against human NCI-H226 cells at 10 uM after 48 hrs by SRB assay; conditions: NCI-H226, 48 h, read-out: GI
HCC 2998 = test: Cytotoxicity against human HCC2998 cells at 10 uM after 48 hrs by SRB assay
MDA-MB-231 = test: Cytotoxicity against human MDA-MB-231 cells at 10 uM after 48 hrs by SRB assay; conditions: MDA-MB-231, 48 h, read-out: GI
HT-29 = test: Cytotoxicity against human HT-29 cells at 10 uM after 48 hrs by SRB assay; conditions: HT-29, 48 h, read-out: GI
[14] = Cytotoxicity against human RXF393 cells at 10 uM after 48 hrs by SRB assay; conditions: RXF 393, 48 h, read-out: GI
HL-60(TB) = test: Cytotoxicity against human HL-60(TB) cells at 10 uM after 48 hrs by SRB assay
SNB-19 = test: Cytotoxicity against human SNB19 cells at 10 uM after 48 hrs by SRB assay
T47D = test: Cytotoxicity against human T47D cells at 10 uM after 48 hrs by SRB assay; conditions: read-out: GI
A498 = test: Cytotoxicity against human A498 cells at 10 uM after 48 hrs by SRB assay; conditions: A498, 48 h, read-out: GI
CCRF-CEM = test: Cytotoxicity against human CCRF-CEM cells at 10 uM after 48 hrs by SRB assay; conditions: read-out: GI
A549 = test: Cytotoxicity against human A549 cells at 10 uM after 48 hrs by SRB assay; conditions: A549, 48 h, read-out: GI
[15] = Cytotoxicity against human OVCAR3 cells at 10 uM after 48 hrs by SRB assay; conditions: OVCAR-3, 48 h, read-out: GI
SNB-75 = test: Cytotoxicity against human SNB75 cells at 10 uM after 48 hrs by SRB assay
[16] = Cytotoxicity against human HOP92 cells at 10 uM after 48 hrs by SRB assay; conditions: HOP-92, 48 h, read-out: GI
CAKI-1 = test: Cytotoxicity against human Caki1 cells at 10 uM after 48 hrs by SRB assay
MDA-MB-468 = test: Cytotoxicity against human MDA-MB-468 cells at 10 uM after 48 hrs by SRB assay; conditions: MDA-MB-468, 48 h, read-out: GI
M14 = test: Cytotoxicity against human M14 cells at 10 uM after 48 hrs by SRB assay; conditions: M14, 48 h, read-out: GI
[17] = Cytotoxicity against human HOP62 cells at 10 uM after 48 hrs by SRB assay; conditions: HOP-62, 48 h, read-out: GI
[18] = Cytotoxicity against human NCI-ADR-RES cells at 10 uM after 48 hrs by SRB assay; conditions: read-out: GI
NCI-H322M = test: Cytotoxicity against human NCI-H322M cells at 10 uM after 48 hrs by SRB assay; conditions: read-out: GI

Structure (SMILES): Cc1nc2cc(Nc3nc(NCCO)nc(Nc4ccc(F)cc4)n3)ccc2n1Cc1ccccc1
- inhibition of growth at 10 µM [1]: 5.46%
- inhibition of growth at 10 µM [2]: 4.73%
- inhibition of growth at 10 µM [3]: 23.4%
- growth inhibition (GI) (SK-MEL-2): inactive
- growth inhibition (GI) (HCT-15): inactive
- inhibition of growth at 10 µM [4]: 7.77%
- growth inhibition (GI) (BT-549): inactive
- inhibition of growth at 10 µM [5]: 13.6%
- inhibition of growth at 10 µM (MCF7): 8.72%
- inhibition of growth at 10 µM (ACHN): 1.72%
- growth inhibition (GI) (TK-10): inactive
- inhibition of growth at 10 µM [6]: 11.5%
- inhibition of growth at 10 µM [7]: 21.2%
- growth inhibition (GI) (SW-620): inactive
- growth inhibition (GI) (SK-MEL-28): inactive
- growth inhibition (GI) (Malme-3M): inactive
- inhibition of growth at 10 µM [8]: 11.1%
- inhibition of growth at 10 µM [9]: 20%
- inhibition of growth at 10 µM [10]: 5.61%
- inhibition of growth at 10 µM (KM12): 19.7%
- inhibition of growth at 10 µM (U-251): 13.7%
- inhibition of growth at 10 µM (MDA-MB-435): 8.37%
- inhibition of growth at 10 µM [11]: 1.2%
- inhibition of growth at 10 µM (SK-MEL-5): 19.7%
- inhibition of growth at 10 µM (SN12C): 8.89%
- growth inhibition (GI) (OVCAR-5): inactive
- inhibition of growth at 10 µM (NCI-H460): 16.5%
- growth inhibition (GI) (Hs-578T): inactive
- inhibition of growth at 10 µM (K562): 80.8%
- inhibition of growth at 10 µM [12]: 18.1%
- inhibition of growth at 10 µM (786-0): 5.33%
- inhibition of growth at 10 µM [13]: 85.8%
- inhibition of growth at 10 µM (NCI-H522): 14.3%
- growth inhibition (GI) (SK-OV-3): inactive
- inhibition of growth at 10 µM (SR): 85.1%
- inhibition of growth at 10 µM (NCI-H226): 8.37%
- growth inhibition (GI) (HCC 2998): inactive
- inhibition of growth at 10 µM (MDA-MB-231): 19.7%
- inhibition of growth at 10 µM (HT-29): 28.1%
- inhibition of growth at 10 µM [14]: 9.82%
- growth inhibition (GI) (HL-60(TB)): Active
- growth inhibition (GI) (SNB-19): inactive
- inhibition of growth at 10 µM (T47D): 34.7%
- inhibition of growth at 10 µM (A498): 33.8%
- inhibition of growth at 10 µM (CCRF-CEM): 98.1%
- inhibition of growth at 10 µM (A549): 25.9%
- inhibition of growth at 10 µM [15]: 9.84%
- growth inhibition (GI) (SNB-75): inactive
- inhibition of growth at 10 µM [16]: 50.1%
- growth inhibition (GI) (CAKI-1): inactive
- inhibition of growth at 10 µM (MDA-MB-468): 0.84%
- inhibition of growth at 10 µM (M14): 6.95%
- inhibition of growth at 10 µM [17]: 6.05%
- inhibition of growth at 10 µM [18]: 2.28%
- inhibition of growth at 10 µM (NCI-H322M): 1.09%
